One assay concerns high-lipid (HL) mutants. The experiment in a line: Chemical sensitivity analysis, high-lipid mutants vs parent strain. In kind it is cell-based, Rhodobacter sphaeroides. Conditions: all HL mutants; 96-well plates, 30° C., 48 hours, OD 595 nm, normalized to DMSO control and parent strain; conc. per Table 4B.
Another assay has as its system HLM04 and HLM07. In words: Chemical sensitivity analysis, Cluster B strains. The note with it: 48 hours, OD 595 nm, conc. per Table 4B. The class given is cell-based, Rhodobacter sphaeroides. The protocol:
(§1) Selected compounds (Tables 4A and 4B) were tested for their effects on growth of the parent strain to determine the highest doses that cause <30% growth reduction. Parent and high-lipid mutant strains were grown in the presence of the chemicals, or DMSO as a control, in 96-well plates at 30° C. with shaking for 48 hours. Final ODs were read at 595 nm on an Infinite® F500 microplate reader (Tecan). For each strain, final ODs for each drug treatment were first divided by the OD of the DMSO control for that strain to determine relative cell growth, and then the growth value for each treated culture was normalized by the parent strain growth under the same condition.

A further assay has as its system HLM01, HLM02 and HLM05. In words: Chemical sensitivity analysis, Cluster A strains. In kind it is cell-based, Rhodobacter sphaeroides. The note with it: 48 hours, OD 595 nm, conc. per Table 4B.
For another assay, the system named is HLM03. Conditions: 48 hours, OD 595 nm, conc. per Table 4B. The protocol:
as §1

Where a SMILES comes first, the peptide text is derived from it. Bridges are numbered along the chain shown (N, C = ends). [ ]: non-standard residue; d: D form. The star is where a group is joined. Ileψ(thiazoline)Cys = CC[C@H](C)[C@H](N)C1=N[C@H](C(=O)*)CS1; dOrn = NCCC[C@@H](N)C(=O)O

For `CCCCCCCCCCCCOS(=O)(=O)[O-].[Na+]` [SDS, sodium dodecyl sulfate], the “growth of the high-lipid mutants compared to the parent strain (relative fitness)” value in the assay on high-lipid (HL) mutants is recorded as “many or all of the high-lipid mutants showed increased sensitivity”. With `CC[C@H](C)[C@H](N)C1=N[C@H](C(=O)N[C@@H](CC(C)C)C(=O)N[C@H](CCC(=O)O)C(=O)N[C@H](C(=O)N[C@H]2CCCCNC(=O)[C@H](CC(N)=O)NC(=O)[C@@H](CC(=O)O)NC(=O)[C@H](Cc3cnc[nH]3)NC(=O)[C@@H](Cc3ccccc3)NC(=O)[C@H]([C@@H](C)CC)NC(=O)[C@@H](CCCN)NC2=O)[C@@H](C)CC)CS1` [bacitracin] ({Ileψ(thiazoline)Cys}-L[dE]IK[dOrn]I[dF]H[dD]N; lactam 4-C), in the assay on HLM04 and HLM07, the “sensitivity compared to the parent strain (relative growth, cluster ** in FIG. 3)” value was “increased sensitivity”. For the compound `CO/N=C(\C(=O)N[C@@H]1C(=O)N2C(C(=O)O)=C(CSc3nc(=O)c(=O)[nH]n3C)CS[C@H]12)c1csc(N)n1` [ceftriaxone], in the assay on HLM04 and HLM07, the “sensitivity compared to the parent strain (relative growth, cluster ** in FIG. 3)” value is on record as “increased sensitivity”. With `CC[C@H]1OC(=O)[C@H](C)[C@@H](O[C@H]2C[C@@](C)(OC)[C@@H](O)[C@H](C)O2)[C@H](C)[C@@H](O[C@@H]2O[C@H](C)C[C@H](N(C)C)[C@H]2O)[C@](C)(OC)C[C@@H](C)C(=O)[C@H](C)[C@@H](O)[C@]1(C)O` [clarithromycin], in the assay with HLM01, HLM02 and HLM05, the “sensitivity compared to the parent strain (relative growth, cluster * in FIG. 3)” value is given as “sensitive”.

On to `CC[C@H]1OC(=O)[C@H](C)[C@@H](O[C@H]2C[C@@](C)(OC)[C@@H](O)[C@H](C)O2)[C@H](C)[C@@H](O[C@@H]2O[C@H](C)C[C@H](N(C)C)[C@H]2O)[C@](C)(O)C[C@@H](C)C(=O)[C@H](C)[C@@H](O)[C@]1(C)O` [erythromycin], for which the “sensitivity compared to the parent strain (relative growth, cluster * in FIG. 3)” value with HLM01, HLM02 and HLM05 is recorded as “sensitive”. For `OO` [hydrogen peroxide], the “sensitivity compared to the parent strain (relative growth)” value with HLM03 was “increased sensitivity”.

Consider `CO[C@H]1/C=C/O[C@@]2(C)Oc3c(C)c(O)c4c(O)c(c5c(nc6cc(C)ccn65)c4c3C2=O)NC(=O)/C(C)=C\C=C\[C@H](C)[C@H](O)[C@@H](C)[C@@H](O)[C@@H](C)[C@H](OC(C)=O)[C@@H]1C` [rifaximin], for which the “sensitivity compared to the parent strain (relative growth, cluster * in FIG. 3)” value with HLM01, HLM02 and HLM05 is reported as “sensitive”. As to neomycin, in the assay on high-lipid (HL) mutants, the “growth of the high-lipid mutants compared to the parent strain (relative fitness)” value is reported as “no growth difference”.

The record behind these values is patent publication US11008577B1 (priority 2017, dated 2021).
